Six molecules from patent US20240033264A1, “CDK INHIBITORS” (QILU REGOR THERAPEUTICS INC., priority 2020, published 2024) can be followed below.

Data set [1] relates to Phosphorylation of Retinoblastoma Protein (pRb) Ser807/811 in T47D cell. Nature of the data set: Inhibition of phosphorylation of retinoblastoma protein (pRb) in T47D cell (ELISA). In kind it is cell-based. To be noted: Homo sapiens, 24 hours incubation, read-out: Phospho T47D Ser807 IC50. The procedure:
T47D breast cancer cells from American Type Culture Collection (ATCC, HTB-133) were plated at 40,000 cells/well in 96-well plates, and were incubated in RPMI 1640 medium (Gibco, 31800105) with 10% Fetal Bovine Serum (FBS, Biowest, FB-1058). Cells were then allowed to adhere overnight at 37° C., 5% CO2. The following day, compounds were titrated in a 3-fold dilution scheme, and the highest compound concentration tested was […]. After 24 hours incubation with compounds, cells were lysed in ice-cold lysis buffer containing phosphatase inhibitor cocktail and 1 mM PMSF. Cell lysates (50 μL/well) were then transferred to ELISA plates (pRb Ser807/811 ELISA kit, Cell Signaling, 13152 or pRb Ser780 ELISA kit, Cell Signaling, 13016)). Plates were incubated overnight at 4° C., with constant slow speed shaking. After incubation, plates were washed following manufacturer's recommendations, and then 100 μL reconstituted detection antibody was added to each well and incubated for 1 hour at 37° C. After incubation, plates were washed, and then 100 μL reconstituted HRP-linked secondary antibody was added to each well and incubated for 30 mins at 37° C. […] Plates were read on the Envision plate reader (PerkinElmer, 2104-0010) using the 96-well […] mode. IC50 values were calculated using 4 parameter sigmoidal dose-response model of Xlfit5/GraphPad Prism 5 software.
On the technique in general: ELISA stands for enzyme-linked immunosorbent assay.

Data set [2] deals with T47D breast cancer cells. Kind of data set: Anti-proliferation assay in T47D cell (Cyquant). In kind it is cell-based, human. Particulars: for IC50: Homo sapiens, T47D, 144 h, anti-proliferation, day 6 after compound addition. The source says: T47D is a human breast cancer cell line commonly used in biomedical research involving the hormonal expression of cancer cells. T47D cells are distinct from other human breast cancer cells in that their progesterone receptors (PR) are not regulated by estradiol, a hormone that is abundant within the cells themselves. T47D cells have been employed in studies of the effects of progesterone on breast cancer and the corresponding transcriptional regulation caused by introduced drugs. The cells have been noted to be extremely resistant to estrogens and antiestrogens.
T47D breast cancer cells from American Type Culture Collection (ATCC, HTB-133) were plated at 3000 cells/well in 96-well plates, and were incubated in RPMI 1640 medium (Gibco, 31800105) with 10% Fetal Bovine Serum (FBS, Biowest, FB-1058) at 37° C., 5% CO2. After overnight incubation, baseline values were measured of the samples from one plate using Cyquant reagent (Invitrogen, C35011) following manufacturer's recommendations. Cells were incubated with the detection reagent for 1 hour at 37° C., and then the fluorescence was measured with excitation at 485 nm and emission at 535 nm using Spectra Max M5 (Molecular Devices, HD-4HYSG3196). Other plates were dosed with compounds at a ten-point dose concentration from 10 μM to 0.51 nM in a 3-fold dilution scheme. On day 6 after compound addition, Cyquant reagent was added and the fluorescence was measured using Spectra Max M5. The IC50 values of the test compound's anti-proliferation activity were determined from the baseline subtracted viability readout curve using Xlfit5/GraphPad Prism 5 software.

A short description of data set [3]: Brain penetration (stated in summary, no method). To be noted: summary statement.
Data set [4] has as its target CDK4/CyclinD1 (Homo sapiens (Human), UniProt P11802). Nature of the data set: Assay for inhibition of CDK4/CyclinD1 (Caliper microfluidic kinase assay). The data set is classed as biochemical. Particulars: summary statement. The protocol: (§1) The CDK4 enzyme assay for IC50 determination was performed as follows. Microfluidic kinase detection technology (Caliper) was used to monitor the phosphorylation of peptide substrate by CDK4/CyclinD1. The total reaction volume was 15 μL containing buffer A (100 mM HEPES (pH 7.5), 0.1% BSA, 0.01% Triton X-100, 1 mM DTT, 10 mM MgCl2, 10 μM Sodium Orthovanadate, 10 μM Beta-Glycerophosphate), 200 μM ATP, 1 nM CDK4/CyclinD1 (Thermofisher, PR8064A), 1 μM FL-34 (5-FAM-[…]), and the test compound at appropriate dilutions in DMSO. All components were added to the 384-well plate (Corning, 4514), and incubated at Room Temperature for 3 hours. The reaction was terminated by addition of 15 μL Stop Buffer (180 mM HEPES (pH 7.5), 20 mM EDTA, Coating-3 reagent (PerkinElmer, 760050)). The plate was then loaded on Caliper EZ Reader (EZ Reader II, PerkinElmer, HD-4HYSG2772), and the reaction mixtures including substrate and product were sipped into the microfluidic chip for separation and detection. The IC50 values of the test compound were determined by fitting the inhibition curves by 4 parameter sigmoidal dose-response model using the Xlfit5/GraphPad Prism 5 software.

Data set [5] deals with CDK2/CyclinE1 (Homo sapiens (Human), UniProt P24941). Kind of data set: Assay for inhibition of CDK2/CyclinE1 (Caliper microfluidic kinase assay). The data set is classed as biochemical. To be noted: summary statement. The procedure: The CDK2 enzyme assay for IC50 determination was performed as follows. Microfluidic kinase detection technology (Caliper) was used to monitor the phosphorylation of peptide substrate by CDK2/CyclinE1. The total reaction volume was 15 μL containing buffer A (100 mM HEPES (pH 7.5), 0.1% BSA, 0.01% Triton X-100, 1 mM DTT, 10 mM MgCl2, 10 μM Sodium Orthovanadate, 10 μM Beta-Glycerophosphate), 100 μM ATP, 5 nM CDK2/CyclinE1 (SignalChem, C29-18G), 5 μM FL-18 (5-FAM-QSPKKG-NH2), and the test compound at appropriate dilutions in DMSO. All components were added to the 384-well plate (Corning, 4514), and incubate at Room Temperature for 3 hours. The reaction was terminated by addition of 15 μL Stop Buffer (180 mM HEPES (pH 7.5), 20 mM EDTA, Coating-3 reagent (PerkinElmer, 760050)). The plate was loaded on Caliper EZ Reader (EZ Reader II, PerkinElmer, HD-4HYSG2772), and the reaction mixtures including substrate and product were sipped into the microfluidic chip for separation and detection. The IC50 values of the test compound were determined by fitting the inhibition curves by 4 parameter sigmoidal dose-response model using the Xlfit5/GraphPad Prism 5 software.

The target in data set [6] is CDK6/CyclinD3 (Homo sapiens (Human), UniProt Q00534). Kind of data set: Assay for inhibition of CDK6/CyclinD3 (Caliper microfluidic kinase assay). The data set is classed as biochemical. Particulars: summary statement. The protocol:
as §1, with “The CDK6” for “The CDK4”, “by CDK6/CyclinD3.” for “by CDK4/CyclinD1.”, “volume is” for “volume was”, “Beta-Glycerophosphate), 300” for “Beta-Glycerophosphate), 200”, “ATP, 2” for “ATP, 1”, “nM CDK6/CyclinD3 (Carna, 04-107),” for “nM CDK4/CyclinD1 (Thermofisher, PR8064A),”

Sequence of CDK4/CyclinD1 (P11802 whole entry): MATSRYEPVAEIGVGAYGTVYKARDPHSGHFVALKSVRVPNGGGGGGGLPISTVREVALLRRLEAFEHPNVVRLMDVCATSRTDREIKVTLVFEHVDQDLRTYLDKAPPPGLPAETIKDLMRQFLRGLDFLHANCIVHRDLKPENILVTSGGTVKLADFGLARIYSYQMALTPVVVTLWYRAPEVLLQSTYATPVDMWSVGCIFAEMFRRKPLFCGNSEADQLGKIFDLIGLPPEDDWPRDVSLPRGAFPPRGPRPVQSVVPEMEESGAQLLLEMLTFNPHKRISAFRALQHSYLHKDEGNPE
Sequence of CDK4/CyclinD1 (P24385 whole entry partner): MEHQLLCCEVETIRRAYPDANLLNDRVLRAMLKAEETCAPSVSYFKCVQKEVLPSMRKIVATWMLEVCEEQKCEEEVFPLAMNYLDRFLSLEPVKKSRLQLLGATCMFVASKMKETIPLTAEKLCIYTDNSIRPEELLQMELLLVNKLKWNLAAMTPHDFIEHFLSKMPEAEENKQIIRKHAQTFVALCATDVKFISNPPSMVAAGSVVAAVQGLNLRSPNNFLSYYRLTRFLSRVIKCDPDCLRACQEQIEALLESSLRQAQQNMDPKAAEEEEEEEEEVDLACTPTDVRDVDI
Sequence of CDK6/CyclinD3 (Q00534 whole entry): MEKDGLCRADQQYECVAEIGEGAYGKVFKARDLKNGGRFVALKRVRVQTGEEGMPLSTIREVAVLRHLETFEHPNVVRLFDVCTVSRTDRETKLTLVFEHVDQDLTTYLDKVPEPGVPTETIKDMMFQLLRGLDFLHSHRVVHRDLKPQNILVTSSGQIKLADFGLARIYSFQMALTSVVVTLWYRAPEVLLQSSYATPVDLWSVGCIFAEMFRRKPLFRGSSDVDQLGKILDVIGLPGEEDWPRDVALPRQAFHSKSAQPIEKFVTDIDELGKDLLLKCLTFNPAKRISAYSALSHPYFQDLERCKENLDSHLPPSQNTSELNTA
Sequence of CDK6/CyclinD3 (P30281 whole entry partner): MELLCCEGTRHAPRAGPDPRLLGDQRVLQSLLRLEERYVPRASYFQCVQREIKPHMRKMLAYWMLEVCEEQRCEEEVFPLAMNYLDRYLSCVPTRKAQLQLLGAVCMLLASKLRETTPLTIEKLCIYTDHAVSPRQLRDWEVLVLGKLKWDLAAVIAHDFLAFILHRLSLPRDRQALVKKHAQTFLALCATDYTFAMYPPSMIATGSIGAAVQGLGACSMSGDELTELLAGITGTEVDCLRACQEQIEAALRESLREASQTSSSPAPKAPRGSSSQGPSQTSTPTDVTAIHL

Usually IC50 stands for the midpoint of a concentration-inhibition curve. With `CC(C)c1cnn2ccc(-c3ccnc(Nc4ccc(N5CC[C@H](N(C)C)CC5=O)cn4)n3)cc12` [Synthetic Example 3], the IC50 in data set [1] and in data set [2] was under 100 nM each time.
`CC(C)c1cnn2ccc(-c3ccnc(Nc4ccc(N5CCC(N(C)C)CC5=O)cn4)n3)cc12` (centres unmarked) [Synthetic Example 1]: the IC50 in data set [2] was under 100 nM.
For the molecule `CC(C)N1CCN(c2ccc(Nc3nccc(-c4cc5c(ncn5C(C)C)c(F)n4)n3)nc2)CC1` [Compound B], the “brain penetration (in words)” value in data set [3] is on record as “excellent”. The “selectivity of CDK4 inhibition (in words)” value in data set [4] is given as “selectively inhibit”.
In turn, `CC(C)N1CCN(c2ccc(Nc3nccc(-c4cc5c(ncn5C(C)C)c(F)n4)n3)nc2)CC1` [Synthetic Example 4] registered an IC50 in data set [2] of under 100 nM.
The same measure, in the same setting: the value for `CC(C)c1cnn2ccc(-c3ccnc(Nc4ccc(N5CC[C@@H](N(C)C)CC5=O)cn4)n3)cc12` [Synthetic Example 2] was under 100 nM.
As to `CC(C)c1cnn2ccc(-c3ccnc(Nc4ccc(N5CC[C@H](N(C)C)CC5=O)cn4)n3)cc12` [Compound A], the “inhibition of CDK2 (in words)” value in data set [5] was “actively inhibits”. In data set [6], the “inhibition of CDK6 (in words)” value is given as “actively inhibits”. For the same molecule, in data set [2] (summary statement), the “anti-proliferation activities (in words)” value was “strong”. The “inhibition of CDK4 (in words)” value in data set [4] is “actively inhibits”.
